This passage reports EC50 results from PubChem BioAssay AID652002 (Sanford-Burnham Center for Chemical Genomics, 2013).

For one assay, the target named is NB7+Caspase-8. The experiment in a line: TRAIL sensitizers in caspase-8 expressing neuroblastoma cells, dose response, NB7 cells plus caspase-8, luminescence, panel (AID 652002). The following applies: NB7 neuroblastoma +caspase-8, TRAIL sensitization, luminescence viability, with TRAIL.
The target of assay [1] is Tumor necrosis factor receptor superfamily member 10B (Homo sapiens) (UniProt O14763). The description is as above. The settings on record: NB7 neuroblastoma +caspase-8, TRAIL sensitization, luminescence viability; NB7+Caspase-8; with TRAIL, mean of runs.
Tumor necrosis factor receptor superfamily member 10B (Homo sapiens), sequence (O14763 whole entry, looked up): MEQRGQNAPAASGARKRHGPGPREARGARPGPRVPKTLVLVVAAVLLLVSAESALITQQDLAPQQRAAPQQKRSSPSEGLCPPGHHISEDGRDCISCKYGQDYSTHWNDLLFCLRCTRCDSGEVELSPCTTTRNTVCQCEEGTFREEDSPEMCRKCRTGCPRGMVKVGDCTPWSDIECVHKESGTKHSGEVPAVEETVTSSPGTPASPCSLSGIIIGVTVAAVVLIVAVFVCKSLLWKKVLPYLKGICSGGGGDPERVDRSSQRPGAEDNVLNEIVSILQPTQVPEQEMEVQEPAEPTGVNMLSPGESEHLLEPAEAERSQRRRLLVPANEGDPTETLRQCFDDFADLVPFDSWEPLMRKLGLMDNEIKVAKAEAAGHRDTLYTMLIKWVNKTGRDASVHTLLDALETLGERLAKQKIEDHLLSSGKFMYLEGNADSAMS
Assay in assay [2]: as above
The following applies: NB7 neuroblastoma +caspase-8, no TRAIL, compound-alone cytotoxicity counter-screen, luminescence viability, NB7+Caspase-8. A general note: Counterscreens check selectivity or assay interference.

[3] abbreviates: run 1, single replicate panel EC50.
The mark [4] stands for this setting: run 2, single replicate panel EC50.

Activity calls are given as the source filed them. No rule for the calls is given here.

Broadly, the EC50 is the concentration that produces a half-maximal response. Turning to `O=Nc1ccc(NO)c2ccccc12`, the EC50 on NB7+Caspase-8 (setting [3]) was over 12.5 µM; on NB7+Caspase-8 (setting [4]), 6.54 µM; in assay [2] (mean of runs), > 12.5 µM (inactive); in assay [2] (setting [3]), over 12.5 µM; in assay [2] (setting [4]), over 12.5 µM. In addition, in assay [1], the EC50 result is “inactive”.

Take `COCCNC(=O)c1cc(-c2ccc(-c3ccccc3)cc2)nc2ccccc12`: the EC50 on NB7+Caspase-8 (setting [3]) was over 12.5 µM; at NB7+Caspase-8 (setting [4]) it was 6.28 µM; in assay [2] (setting [3]) it was over 12.5 µM; in assay [2] (setting [4]), 2.09 µM. In addition, the EC50 entry in assay [1] and in assay [2] (mean of runs) was “inactive” each time.

Take `CC1(C)N=C(N)N=C(N)N1c1ccc(Oc2ccc(Cl)cc2)c(Cl)c1`: the concentration giving a half-maximal response (EC50) on NB7+Caspase-8 (setting [3]) amounted to 1.33 µM; on NB7+Caspase-8 (setting [4]) it was 0.948 µM; in assay [2] (setting [3]), 1.64 µM; in assay [2] (setting [4]), 0.423 µM. In addition, the EC50 entry in assay [1] and in assay [2] (mean of runs) was “inactive” throughout.

In the case of `O=C(Nc1ccc2ccccc2c1)c1ccc(Cl)cc1`, the EC50 at NB7+Caspase-8 (setting [3]) was over 12.5 µM; on NB7+Caspase-8 (setting [4]), over 12.5 µM; in assay [1] it was > 12.5 µM (inactive); in assay [2] (mean of runs), > 12.5 µM (inactive); in assay [2] (setting [3]), over 12.5 µM; in assay [2] (setting [4]) it was over 12.5 µM.

For the compound `COc1cccc(NC(=O)Nc2nccc(C)n2)c1`, the EC50 at NB7+Caspase-8 (setting [3]) is over 12.5 µM; on NB7+Caspase-8 (setting [4]), 4.33 µM; in assay [2] (mean of runs), > 12.5 µM (inactive); in assay [2] (setting [3]), over 12.5 µM; in assay [2] (setting [4]), over 12.5 µM. Moreover, the EC50 entry in assay [1] was “inactive”.

For the compound `Cc1cc2nc3ccc(N(C)C)cc3nc2cc1N`, the EC50 is over 12.5 µM on NB7+Caspase-8 (setting [3]); 10.9 µM at NB7+Caspase-8 (setting [4]); > 12.5 µM (inactive) in assay [2] (mean of runs); over 12.5 µM in assay [2] (setting [3]); over 12.5 µM in assay [2] (setting [4]). Further, in assay [1], the EC50 result is “inactive”.

Take `O=C(Nc1ccc(C(=O)O)cc1)/C(=C\C=C\c1ccccc1)NC(=O)c1ccccc1Cl`: the EC50 is over 12.5 µM at NB7+Caspase-8 (setting [3]), 3.5 µM on NB7+Caspase-8 (setting [4]), 7.94 µM in assay [2] (setting [3]) and over 12.5 µM in assay [2] (setting [4]). Moreover, the EC50 entry in assay [1] and in assay [2] (mean of runs) was “inactive” throughout.

In the case of `COc1cc(NC(=O)c2cncc(-c3ccc(C#N)cc3)c2)cc(C(=O)Nc2cccc(C(F)(F)F)c2)c1`, the EC50 on NB7+Caspase-8 (setting [3]) is over 12.5 µM; on NB7+Caspase-8 (setting [4]), over 12.5 µM; in assay [1] it was > 12.5 µM (inactive); in assay [2] (mean of runs), > 12.5 µM (inactive); in assay [2] (setting [3]), over 12.5 µM; in assay [2] (setting [4]), over 12.5 µM.

For `c1ccc(Nc2nnc(-c3cccnc3)s2)cc1`, the EC50 was over 12.5 µM at NB7+Caspase-8 (setting [3]); 5.66 µM on NB7+Caspase-8 (setting [4]); > 12.5 µM (inactive) in assay [2] (mean of runs); over 12.5 µM in assay [2] (setting [3]); over 12.5 µM in assay [2] (setting [4]). Further, the EC50 result in assay [1] was “inactive”.

Turning to `COc1ccccc1/C=C/C=N/n1c(-c2cc(-c3ccccc3)n[nH]2)n[nH]c1=S`, the EC50 is over 12.5 µM on NB7+Caspase-8 (setting [3]); over 12.5 µM on NB7+Caspase-8 (setting [4]); > 12.5 µM (inactive) in assay [1]; > 12.5 µM (inactive) in assay [2] (mean of runs); over 12.5 µM in assay [2] (setting [3]); over 12.5 µM in assay [2] (setting [4]).

Consider `O=C(NC(=O)c1ccccc1)Nc1ccccc1`, for which the concentration for a half-maximal effect (EC50) on NB7+Caspase-8 (setting [3]) was over 12.5 µM; at NB7+Caspase-8 (setting [4]), over 12.5 µM; in assay [1], > 12.5 µM (inactive); in assay [2] (mean of runs), > 12.5 µM (inactive); in assay [2] (setting [3]), over 12.5 µM; in assay [2] (setting [4]), over 12.5 µM.

Regarding `Nc1ccccc1C(=O)NN=Cc1cccc([N+](=O)[O-])c1`, the EC50 on NB7+Caspase-8 (setting [3]) is over 12.5 µM; on NB7+Caspase-8 (setting [4]), 7.52 µM; in assay [2] (setting [3]), over 12.5 µM; in assay [2] (setting [4]), 9.8 µM. For the same compound, the EC50 entry in assay [1] and in assay [2] (mean of runs) was “inactive” throughout.

Consider `COC(=O)c1ccc(/C=C/c2nc3ccccc3c(=O)[nH]2)cc1`, for which the EC50 at NB7+Caspase-8 (setting [3]) was over 12.5 µM; at NB7+Caspase-8 (setting [4]), over 12.5 µM; in assay [1], > 12.5 µM (inactive); in assay [2] (mean of runs), > 12.5 µM (inactive); in assay [2] (setting [3]), over 12.5 µM; in assay [2] (setting [4]), over 12.5 µM.

For `CC1(C)N=C(N)N=C(N)N1c1ccc(CCCCc2ccccc2)cc1`, the EC50 on NB7+Caspase-8 (setting [3]) was under 0.39 µM; on NB7+Caspase-8 (setting [4]) it was under 0.391 µM; in assay [1], < 0.39 µM (inactive); in assay [2] (setting [3]), over 12.5 µM; in assay [2] (setting [4]), under 0.39 µM. Further, the EC50 entry in assay [2] (mean of runs) was “inactive”.

As to `COC(=O)[C@]12CCCCC=C1N(Cc1cccc3ccccc13)C(=O)[C@H](CC(=O)NCc1ccc(OC)c(OC)c1)C2`, the concentration giving a half-maximal response (EC50) at NB7+Caspase-8 (setting [3]) is over 12.5 µM; on NB7+Caspase-8 (setting [4]) it was 10.7 µM; in assay [2] (setting [3]), over 12.5 µM; in assay [2] (setting [4]), 10.2 µM. The EC50 entry in assay [1] and in assay [2] (mean of runs) was “inactive” each time.
